The results in this text go back to paper PMC6158189, “A pharmacological probe identifies cystathionine β-synthase as a new negative regulator for ferroptosis” (Cell Death & Disease, 2018).

In assay [1] the test system is HepG2 cells. Kind of assay: lipid ROS (BODIPY 581/591 C11, flow cytometry). It counts as cell-based, human. The conditions noted are these: 24 h; for accumulation of lipid ROS in HepG2 cells: up to 15 μM. As to the method: (§1) To detect lipid peroxidation upon treatment with CH004, HepG2 cells or mouse embryonic fibroblasts (MEF) were seeded in 12-well plates with ~ 1.8 × 10^5 cells per well for 24 h. After treatment with the inhibitor for another 24 h, cells were stained with BODIPY® 581/591 C11 (Invitrogen) for 1 h at a final concentration of 2 μM at 37 °C[57]. The cells were then resuspended in an appropriate amount of PBS after being washed once with PBS. Lipid peroxidation, i.e., lipid ROS, was analyzed by detection of the fluorescence using an LSR Fortessa flow cytometer. The data were recorded at 530/30 nm (green fluorescent) and 670/30 nm (red fluorescent) wavelengths after excitation at 488 nm. A minimum of 20000 events was used for the analysis. All the experiments were independently repeated twice in triplicate.
Figure S15. The mode of actions for CH004 in cells. […] Indicated HEK293T stable cell lines were treated with CH004 at a concentration of 10 µM for 24 h, and the cell viability was then measured using the CellTiter96® Aqueous One Solution Cell Proliferation Assay (Promega). Means ± SDs (n=3). (B-C) CH004 or erastin triggers ferroptosis in mouse embryonic fibroblasts (MEF). WT MEF cells were treated with CH004 or erastin at indicated concentrations in the presence or the absence of 500 µM DFO for 24 h before measuring the lipid ROS with 2 μM BODIPY® 581/591 C11 (Materials and methods). […] Erastin at micromolar concentrations were incubated with HepG2 cells for 24 h before measuring the lipid ROS (see above and Materials and methods). […] Means ± SDs (n=3). […] CH004 or erastin at a concentration of 20 µM was incubated with HepG2 cells for 48 h or 72 h in the presence or the absence of 100 µM DFO. The cell viability was accordingly quantified using the CellTiter96® Aqueous One Solution Cell Proliferation Assay (Promega) and the results were shown as percentages of DMSO (control, 100%). Means ± SDs (n=3). All the experiments were independently repeated at least twice and one representative result is present. Table S1 The inhibitory effects of CH004 on purified hCBS, hCSE and hDDC.

In assay [2] the test system is HepG2 cells. Kind of assay: rescue of CH004-induced loss of viability by cell death inhibitors (CellTiter 96). The class given is cell-based, human. The conditions noted are these: 100 µM DFO, 48 h or 72 h. Here is the method: To measure cell viability and cytotoxicity, HepG2, HEK293T, Huh-7, H22, Panc-28, HCT116 and MDA-MB-231 cells were seeded at a density of ~ 2 × 10^4 cells per well in 96-well plates (Coring, NY, USA) for one day, followed by incubation with DMSO or various concentrations of tested compound for indicated times. Then, the cells were collected to measure the cell viability using the CellTiter 96® Aqueous One Solution Cell Proliferation Assay (Promega, G3581) according to the standard protocols.
Figure S15. The mode of actions for CH004 in cells. […] Indicated HEK293T stable cell lines were treated with CH004 at a concentration of 10 µM for 24 h, and the cell viability was then measured using the CellTiter96® Aqueous One Solution Cell Proliferation Assay (Promega). Means ± SDs (n=3). (B-C) CH004 or erastin triggers ferroptosis in mouse embryonic fibroblasts (MEF). WT MEF cells were treated with CH004 or erastin at indicated concentrations in the presence or the absence of 500 µM DFO for 24 h before measuring the lipid ROS with 2 μM BODIPY® 581/591 C11 (Materials and methods). […] The cell viability was accordingly quantified using the CellTiter96® Aqueous One Solution Cell Proliferation Assay (Promega) and the results were shown as percentages of DMSO (control, 100%). […]

Assay [3] deals with mouse embryonic fibroblasts (MEF). Kind of assay: lipid ROS (BODIPY 581/591 C11, flow cytometry). It counts as cell-based. The conditions noted are these: low micromolar concentrations, 24 h. As to the method: as §1
Figure S15. The mode of actions for CH004 in cells. […] Indicated HEK293T stable cell lines were treated with CH004 at a concentration of 10 µM for 24 h, and the cell viability was then measured using the CellTiter96® Aqueous One Solution Cell Proliferation Assay (Promega). Means ± SDs (n=3). (B-C) CH004 or erastin triggers ferroptosis in mouse embryonic fibroblasts (MEF). […] The cell viability was accordingly quantified using the CellTiter96® Aqueous One Solution Cell Proliferation Assay (Promega) and the results were shown as percentages of DMSO (control, 100%). […]

For assay [4], the system named is HepG2 cells. Kind of assay: cell viability (CellTiter 96 Aqueous One). The conditions noted are these: 20 μM, 48 h or 72 h. It counts as cell-based, human. Here is the method:
Fig. 4 CH004 arrests the cell cycle at the S phase. a CH004 reduces the cell viability of HEK293T and HepG2 cells. HEK293T or HepG2 cells were treated with indicated concentrations of CH004 for 24 h before the cell number was analyzed using the CellTiter96® Aqueous One Solution Cell Proliferation Assay (Promega, Materials and Methods). The means at each concentration of one representative experiment are shown as percentages of DMSO (control, 100%). Means ± SDs (n = 3). b Overexpression of hCBS or knock-down of hCBS counteracts the growth inhibition exerted by CH004 in HEK293T cells. Indicated HEK293T stable cell lines were treated with the CH004 or DMSO for 24 h. Then, the cell viability was quantified with the CellTiter 96® Aqueous One Solution Cell Proliferation Assay under the standard protocol (Promega). The means at each concentration are shown as percentages of their respective DMSO controls (100%). Means ± SDs (n = 3). The efficacy for CBS overexpression and knock-down in HEK293T cells was determined by Western blotting using an anti-CBS antibody (3E1, 1:2000; Abnova). c CH004 induces cell death in HEK293T and HepG2 cells. […] The means of percentages of dead cells (DMSO, 100%) from three independent samples are shown in d. Means ± SDs (n = 3). e, f Pharmacological inhibition or genetic knock-down of hCBS in HEK293T cells arrests the cell cycle at S phase. HEK293T cells were incubated with indicated compounds for 12 h, and the DNA content was quantified with propidium iodide to analyze the cell cycle distribution by flow cytometry (e). The cell cycle distributions for HEK293T-shNT and HEK293T-shCBS cells were accordingly analyzed and are shown in f. One representative diagram is shown for each condition. The mean percentages of various cell phases from three independent samples are shown in the respective right panels. Means ± SDs (n = 3). […]
Figure S15. […] Indicated HEK293T stable cell lines were treated with CH004 at a concentration of 10 µM for 24 h, and the cell viability was then measured using the CellTiter96® Aqueous One Solution Cell Proliferation Assay (Promega). […]

As to `CC(=O)N(O)CCCCCNC(=O)CCC(=O)N(O)CCCCCNC(=O)CCC(=O)N(O)CCCCCN` [deferoxamine], in the assay with HepG2 cells [1] (500 μM deferoxamine, HepG2), the “reduction of lipid ROS caused by 10 μM CH004” value is “almost completely reduced”. In addition, the “rescue of cell death caused by 20 µM CH004” value in the assay with HepG2 cells [2] is reported as “partially rescues”.
In the case of `CCOc1ccccc1-n1c(C(C)N2CCN(C(=O)COc3ccc(Cl)cc3)CC2)nc2ccccc2c1=O` (stereo not drawn) [erastin, reference compound], in assay [3], the “induction of ferroptosis (lipid ROS) in MEF” value was ~ 3 fold. Besides, in the assay with HepG2 cells [4], the “cell death in HepG2 cells” value was “did not trigger”. Further, the “accumulation of lipid ROS in HepG2 cells” value in the assay with HepG2 cells [1] is reported as “did not trigger”; with HepG2 cells [1] (listed as Erastin), “does not induce ferroptosis”.
